Test results taken from patent US9580444B2, “Polycyclic pyrazolinone derivative and herbicide comprising same as effective component thereof” (priority 2013, dated 2017).

Key:
Format in all cases: in vivo
Details in all cases: 500 g a.i/ha, foliage treatment after emergence, about 14 days after treatment, score 0-5
corn = test: Test Example-4: phytotoxicity by a foliage treatment after weeds are generated under upland field conditions
Excerpt: (§1) Using the formulation prepared according to the methods described above, the herbicidal effect of the bicyclic pyrazolinone derivative of the invention according to the methods shown in Test Examples below was examined. The herbicidal effect with respect to the test weeds or the phytotoxicity with respect to the test crops was examined according to the following criteria, and evaluated in six stage scores of 0 to 5. A vat having an area of 65 cm^2 and a depth of 2 cm was filled with upland soil, then, seeds of Amaranthus viridis (green amaranthus), Abutilon theophrasti (velvetleaf), Chenopodium album (common lambsquarters), […]. While watering was suitably performed on there, the seeds were grown for 14 days. A wettable powder or an emulsifiable concentrate of the compound of the present invention prepared according to Formulation Example was diluted, and a spray treatment was uniformly performed on the foliage portion of the plant so as to be a predetermined dosage in the amount of water of 4000 L per hectare. The herbicidal effect with respect to the test weeds and the phytotoxicity with respect to corn about 14 days after the treatment were evaluated according to the evaluation criteria in six stages of 0 to 5 described above.

[1] = tested on: Chenopodium album (common lambsquarters); test: Test Example-4: herbicidal effect by a foliage treatment after weeds are generated under upland field conditions
Excerpt: as §1

[2] = tested on: Amaranthus viridis (green amaranthus); test: as above
Excerpt: as §1

[3] = tested on: Abutilon theophrasti (velvetleaf); test: as above
Excerpt: as §1

SMILES	Phytotoxicity Corn (corn)	Herbicidal effect Chenopodium album [1]	Herbicidal effect Amaranthus viridis [2]	Herbicidal effect Abutilon theophrast [3]
C#CC(C)Oc1cc(-c2c(Cl)n3n(c2=O)CCCC3)ccc1Cl (stereo not shown) [Example 1-67]	0 (Herbicidal effect/phytotoxicity was 0% to 10%)	5 (Herbicidal effect/phytotoxicity was 90% or greater)	5 (Herbicidal effect/phytotoxicity was 90% or greater)	5 (Herbicidal effect/phytotoxicity was 90% or greater)
C=CCOc1cc(C)ccc1Oc1cc(-c2c(Cl)n3n(c2=O)CCCC3)c(F)cc1Cl [Example 3-42]	0 (Herbicidal effect/phytotoxicity was 0% to 10%)	5 (Herbicidal effect/phytotoxicity was 90% or greater)	5 (Herbicidal effect/phytotoxicity was 90% or greater)	5 (Herbicidal effect/phytotoxicity was 90% or greater)
COc1ccccc1Oc1cc(-c2c(Cl)n3n(c2=O)CCCC3)c(F)cc1Cl [Example 3-2]	2 (Herbicidal effect/phytotoxicity was 30% to 50%)	5 (Herbicidal effect/phytotoxicity was 90% or greater)	5 (Herbicidal effect/phytotoxicity was 90% or greater)	5 (Herbicidal effect/phytotoxicity was 90% or greater)
CC1(COc2cc(-c3c(Cl)n4n(c3=O)CCCC4)c(F)cc2Cl)CC(c2ccccc2Cl)=NO1 (stereo not shown) [Example 4-5]	1 (Herbicidal effect/phytotoxicity was 10% to 30%)	5 (Herbicidal effect/phytotoxicity was 90% or greater)	5 (Herbicidal effect/phytotoxicity was 90% or greater)	5 (Herbicidal effect/phytotoxicity was 90% or greater)
Nc1cc(-c2c(Cl)n3n(c2=O)CCCC3)c(F)cc1Cl [Example 5-11]	1 (Herbicidal effect/phytotoxicity was 10% to 30%)	5 (Herbicidal effect/phytotoxicity was 90% or greater)	5 (Herbicidal effect/phytotoxicity was 90% or greater)	5 (Herbicidal effect/phytotoxicity was 90% or greater)
CCOC(=CC(=O)OCC(C)C)COc1cc(-c2c(Cl)n3n(c2=O)CCCC3)c(F)cc1Cl [Example 2-27]	0 (Herbicidal effect/phytotoxicity was 0% to 10%)	5 (Herbicidal effect/phytotoxicity was 90% or greater)	5 (Herbicidal effect/phytotoxicity was 90% or greater)	5 (Herbicidal effect/phytotoxicity was 90% or greater)
CC(C)Oc1cccc(Oc2cc(-c3c(Cl)n4n(c3=O)CCCC4)c(F)cc2Cl)c1 [Example 3-11]	0 (Herbicidal effect/phytotoxicity was 0% to 10%)	5 (Herbicidal effect/phytotoxicity was 90% or greater)	5 (Herbicidal effect/phytotoxicity was 90% or greater)	5 (Herbicidal effect/phytotoxicity was 90% or greater)
CCOC(=O)COc1ccccc1Oc1cc(-c2c(Cl)n3n(c2=O)CCCC3)c(F)cc1Cl [Example 3-17]	0 (Herbicidal effect/phytotoxicity was 0% to 10%)	5 (Herbicidal effect/phytotoxicity was 90% or greater)	5 (Herbicidal effect/phytotoxicity was 90% or greater)	5 (Herbicidal effect/phytotoxicity was 90% or greater)
CCOC(=O)C=C(COc1cc(-c2c(Cl)n3n(c2=O)CCCC3)c(F)cc1Cl)OC (mixture of isomers) [Example 2-14]	0 (Herbicidal effect/phytotoxicity was 0% to 10%)	5 (Herbicidal effect/phytotoxicity was 90% or greater)	5 (Herbicidal effect/phytotoxicity was 90% or greater)	5 (Herbicidal effect/phytotoxicity was 90% or greater)
O=c1c(-c2cc(NS(=O)(=O)c3ccccc3Cl)c(Cl)cc2F)c(Cl)n2n1CCCC2 [Example 5-63]	0 (Herbicidal effect/phytotoxicity was 0% to 10%)	5 (Herbicidal effect/phytotoxicity was 90% or greater)	5 (Herbicidal effect/phytotoxicity was 90% or greater)	5 (Herbicidal effect/phytotoxicity was 90% or greater)
CCOC(=O)COc1cc(-c2c(Cl)n3n(c2=O)CCCC3)c(F)cc1Cl [Example 1-163]	0 (Herbicidal effect/phytotoxicity was 0% to 10%)	5 (Herbicidal effect/phytotoxicity was 90% or greater)	5 (Herbicidal effect/phytotoxicity was 90% or greater)	5 (Herbicidal effect/phytotoxicity was 90% or greater)
COC(=O)C=C(COc1ccccc1Oc1cc(-c2c(Cl)n3n(c2=O)CCCC3)c(F)cc1Cl)OC [Example 3-23]	0 (Herbicidal effect/phytotoxicity was 0% to 10%)	5 (Herbicidal effect/phytotoxicity was 90% or greater)	5 (Herbicidal effect/phytotoxicity was 90% or greater)	5 (Herbicidal effect/phytotoxicity was 90% or greater)
C=CCOc1cccc(Oc2cc(-c3c(Cl)n4n(c3=O)CCCC4)c(F)cc2Cl)c1 [Example 3-28]	0 (Herbicidal effect/phytotoxicity was 0% to 10%)	5 (Herbicidal effect/phytotoxicity was 90% or greater)	5 (Herbicidal effect/phytotoxicity was 90% or greater)	5 (Herbicidal effect/phytotoxicity was 90% or greater)
C#CCOc1cc(C)ccc1Oc1cc(-c2c(Cl)n3n(c2=O)CCCC3)c(F)cc1Cl [Example 3-43]	0 (Herbicidal effect/phytotoxicity was 0% to 10%)	5 (Herbicidal effect/phytotoxicity was 90% or greater)	5 (Herbicidal effect/phytotoxicity was 90% or greater)	5 (Herbicidal effect/phytotoxicity was 90% or greater)
COC(=O)C=C(COc1cc(-c2c(Cl)n3n(c2=O)CCCC3)c(F)cc1Cl)OC (mixture of isomers) [Example 2-1]	1 (Herbicidal effect/phytotoxicity was 10% to 30%)	5 (Herbicidal effect/phytotoxicity was 90% or greater)	5 (Herbicidal effect/phytotoxicity was 90% or greater)	5 (Herbicidal effect/phytotoxicity was 90% or greater)
C#CCOc1cc(F)ccc1Oc1cc(-c2c(Cl)n3n(c2=O)CCCC3)c(F)cc1Cl [Example 3-35]	1 (Herbicidal effect/phytotoxicity was 10% to 30%)	5 (Herbicidal effect/phytotoxicity was 90% or greater)	5 (Herbicidal effect/phytotoxicity was 90% or greater)	5 (Herbicidal effect/phytotoxicity was 90% or greater)
COc1cc(C)ccc1Oc1cc(-c2c(Cl)n3n(c2=O)CCCC3)c(F)cc1Cl [Example 3-41]	1 (Herbicidal effect/phytotoxicity was 10% to 30%)	5 (Herbicidal effect/phytotoxicity was 90% or greater)	5 (Herbicidal effect/phytotoxicity was 90% or greater)	5 (Herbicidal effect/phytotoxicity was 90% or greater)
C=C(C)COC(=O)C=C(COc1cc(-c2c(Cl)n3n(c2=O)CCCC3)c(F)cc1Cl)OCC [Example 2-30]	0 (Herbicidal effect/phytotoxicity was 0% to 10%)	5 (Herbicidal effect/phytotoxicity was 90% or greater)	5 (Herbicidal effect/phytotoxicity was 90% or greater)	5 (Herbicidal effect/phytotoxicity was 90% or greater)
C=CCOC(=O)C=C(COc1ccccc1Oc1cc(-c2c(Cl)n3n(c2=O)CCCC3)c(F)cc1Cl)OC [Example 3-24]	0 (Herbicidal effect/phytotoxicity was 0% to 10%)	5 (Herbicidal effect/phytotoxicity was 90% or greater)	5 (Herbicidal effect/phytotoxicity was 90% or greater)	5 (Herbicidal effect/phytotoxicity was 90% or greater)
O=c1c(-c2cc([N+](=O)[O-])c(Cl)cc2F)c(C(F)(F)F)n2n1CCCC2 [Example 1-336]	0 (Herbicidal effect/phytotoxicity was 0% to 10%)	5 (Herbicidal effect/phytotoxicity was 90% or greater)	5 (Herbicidal effect/phytotoxicity was 90% or greater)	5 (Herbicidal effect/phytotoxicity was 90% or greater)
C=CCOc1cc(-c2c(Cl)n3n(c2=O)CCCC3)ccc1Cl [Example 1-59]	0 (Herbicidal effect/phytotoxicity was 0% to 10%)	5 (Herbicidal effect/phytotoxicity was 90% or greater)	5 (Herbicidal effect/phytotoxicity was 90% or greater)	5 (Herbicidal effect/phytotoxicity was 90% or greater)
C=C(C)COc1ccccc1Oc1cc(-c2c(Cl)n3n(c2=O)CCCC3)c(F)cc1Cl [Example 3-22]	0 (Herbicidal effect/phytotoxicity was 0% to 10%)	5 (Herbicidal effect/phytotoxicity was 90% or greater)	5 (Herbicidal effect/phytotoxicity was 90% or greater)	5 (Herbicidal effect/phytotoxicity was 90% or greater)
